≈ marks a conversion by molar mass, not a printed value.
Assays:
[1] = 20° C. and pH of 7; cited from earlier work
[2] = tested on: Ctenocephalides felis; assay: Spot-on efficacy of Compound A, pyriproxyfen and nitenpyram against Ctenocephalides felis fleas in cats (Example 11); type: in vivo; conditions: Group 5: 2.08% nitenpyram alone in Transcutol, 5.0 mg/kg
Protocol: The efficacy of three spot-on compositions comprising a combination of Compound A, pyriproxyfen and nitenpyram against Ctenocephalides felis fleas in cats was studied and compared with an untreated control and with a spot-on composition comprising nitenpyram alone. Cats were allocated into five Treatment Groups with 5 cats per group: Group 1—cats were untreated (control); Group 2—cats were treated spot-on solution containing 0.83% (w/v) Compound A, 2.08% (w/v) nitenpyram, and 4.17% (w/v) pyriproxyfen in Transcutol® to deliver doses of 1.0 mg/kg Compound A, 2.5 mg/kg nitenpyram and 5.0 mg/kg pyriproxyfen; Group 3—cats were treated a spot-on solution containing 0.83% (w/v) Compound A, 4.17% (w/v) nitenpyram, and 4.17% (w/v) pyriproxyfen in Transcutol® to deliver doses of 1.0 mg/kg Compound A, 5.0 mg/kg nitenpyram and 5.0 mg/kg pyriproxyfen; Group 4—cats were treated with a spot-on composition containing 0.83% (w/v) Compound A, 8.33% (w/v) nitenpyram and 4.17% (w/v) pyriproxyfen in Transcutol® to deliver doses of 1.0 mg/kg Compound A, 10.0 mg/kg nitenpyram and 5.0 mg/kg pyriproxyfen; Group 5—cats were treated with a spot-on composition containing 2.08% (w/v) nitenpyram alone in Transcutol® to deliver a dose of 5.0 mg/kg body weight.
Treatment was administered once on Day 0. The cats were each infested with approximately 100 C. felis fleas at day −1, on Day 0 approximately 12 hours post treatment and then on Days 1 (approx. 24 hours post treatment), 2, 7, 14, 21, 28 and 35. After each infestation, fleas were removed and counted approximately 12 hours (±3) on Day 0, and then on Days 1, 2, 8, 15, 22, 29 and 36 (24±3 hours after infestation).

[3] = 14C radiolabeled drug, beagle dogs, spot-on administration; cited from earlier work

Row | SMILES | solubility in water [1] [mg/mL] | % Reduction ([2]; Day 0 (12 h)) [%] | % Reduction ([2]; Day 1 (24 h)) [%] | % Reduction ([2]; Day 2 (24 h)) [%] | % Reduction ([2]; Day 8 (24 h)) [%] | % Reduction ([2]; Day 15 (24 h)) [%] | % Reduction ([2]; Day 22 (24 h)) [%] | persistently detected in the whole skin after treatment [3]
1 | CCN(Cc1ccc(Cl)nc1)/C(=C/[N+](=O)[O-])NC [nitenpyram] | 840 (≈ 3100 mM) | 99.44 | 99.79 | 100.00 | 100.00 | 96.76 | 93.63 | 
2 | N#Cc1nn(-c2c(Cl)cc(C(F)(F)F)cc2Cl)c(N)c1[S+]([O-])C(F)(F)F (centres unmarked) [fipronil] |  |  |  |  |  |  |  | up to 56 days
